For data set [1], the system named is MTAP Knockout HCT116 cells. The data set is described as follows: Cell proliferation inhibition (CellTiter-Glo), HCT116 MTAP knockout cells. It is filed as cell-based. The settings on record: for Selectivity: HCT116 IC50 versus MTAP Knockout HCT116 IC50; for IC50: Homo sapiens, HCT-116, read-out: MTAP Knockout HCT116 IC50. The text has this: (§1) Test Example 2: Determination of the inhibitory effect of the compounds of the present invention on the proliferation activity of HCT116 and MTAP Knockout HCT116 cells.
(§2) 1 Experimental objective: The objective of this test example is to determine the inhibitory effect of the compound on the proliferation activity of HCT116 wild-type and HCT116 MTAP knockout cells. 2 Experimental instruments: Centrifuge (Eppendorf 5810R); microplate reader (BioTek Synergy H1 or PerkinElmer Envision); pipette (Eppendorf or Rainin). 3 Experimental reagents: HCT116 and MTAP Knockout HCT116 cells were purchased from Nanjing Cobioer; Cell Titer-Glo was purchased from Promega (Cat. No. G7573); McCoy'5A was purchased from Gibco (Cat. No. 12330031); FBS was purchased from Gibco (Cat. No. 10091148); PBS was purchased from Gibco (Cat. No. 10010023); trypsin was purchased from Gibco (Cat. No. 25200056); cell culture plates were purchased from Corning (Cat. No. 3610). 4 Experimental method: HCT116 and MTAP Knockout HCT116 cells were cultured in McCoy'5A medium containing 10% FBS until an appropriate cell density was reached. The cells were then collected and adjusted to a suitable concentration using complete medium. The cell suspension was seeded into a 96-well plate at 90 µL per well and allowed to adhere overnight in a 37°C, 5% CO2 incubator. Compound solutions of various concentrations were prepared using DMSO and culture medium, with a vehicle control set. The compound solutions were added to the 96-well plate at 10 µL per well, and the plate was incubated in a 37°C, 5% CO2 incubator for an additional 72-240 hours. After incubation, CellTiter-Glo solution was added, and the mixture was mixed uniformly by shaking, followed by incubation in the dark for 10 to 30 minutes. Luminescence was measured using a Synergy H1 or Envision microplate reader. 5 Experimental data processing method: The inhibition rate was calculated using the luminescence signal values, and the concentrations along with the inhibition rates were subjected to non-linear regression curve fitting using Graphpad Prism software to obtain the IC50 values.
On the technique in general: In ATP-based viability assays light output follows the ATP content of the culture.

The target of data set [2] is T1, PRMT5/MEP50-MTA protein complex (Homo sapiens, UniProt O14744).
T1 construct: purchased Viva Biotech
T1 sequence (O14744 whole entry): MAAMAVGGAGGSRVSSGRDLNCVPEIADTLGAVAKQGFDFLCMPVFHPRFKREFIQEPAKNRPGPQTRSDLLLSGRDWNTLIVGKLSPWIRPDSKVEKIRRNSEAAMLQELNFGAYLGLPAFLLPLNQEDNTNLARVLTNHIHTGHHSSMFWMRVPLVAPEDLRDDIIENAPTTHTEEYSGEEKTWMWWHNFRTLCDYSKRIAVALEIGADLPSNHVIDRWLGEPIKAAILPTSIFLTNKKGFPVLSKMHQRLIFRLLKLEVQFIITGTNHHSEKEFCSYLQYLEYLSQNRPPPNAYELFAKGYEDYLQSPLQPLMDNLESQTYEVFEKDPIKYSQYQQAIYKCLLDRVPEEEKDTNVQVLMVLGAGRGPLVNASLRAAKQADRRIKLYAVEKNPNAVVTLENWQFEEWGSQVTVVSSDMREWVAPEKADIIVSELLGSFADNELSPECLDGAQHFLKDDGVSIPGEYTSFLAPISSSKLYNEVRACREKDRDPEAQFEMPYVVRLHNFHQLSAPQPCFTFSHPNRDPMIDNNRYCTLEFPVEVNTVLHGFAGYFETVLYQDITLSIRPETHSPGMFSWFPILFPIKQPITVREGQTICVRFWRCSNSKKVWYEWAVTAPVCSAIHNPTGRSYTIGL
T1 sequence (Q9BQA1 whole entry partner): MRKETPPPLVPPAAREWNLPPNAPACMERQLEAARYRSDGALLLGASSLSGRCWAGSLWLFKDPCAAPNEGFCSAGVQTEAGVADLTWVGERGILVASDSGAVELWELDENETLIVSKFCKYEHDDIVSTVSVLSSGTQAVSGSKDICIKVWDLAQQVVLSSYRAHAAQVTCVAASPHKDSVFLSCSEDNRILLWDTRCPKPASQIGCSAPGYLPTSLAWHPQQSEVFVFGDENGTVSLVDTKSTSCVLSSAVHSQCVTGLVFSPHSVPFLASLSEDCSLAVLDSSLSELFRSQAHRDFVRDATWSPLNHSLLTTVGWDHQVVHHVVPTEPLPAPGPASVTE
The data set is described as follows: Thermal shift assay: thermal stability (melting temperature) of PRMT5/MEP50-MTA protein complex. It is filed as binding. The settings on record: final compound concentration 8 µM; 2 µM PRMT5/MEP50, 2 µM MTA; Tm minus Tm of DMSO vehicle control. The text has this:
Test Example 1: Determination of the ability of the compounds of the present invention to improve the thermal stability (melting temperature) of the PRMT5/MEP50-MTA protein complex.
1 Experimental objective: The objective of this test example is to determine the ability of the compound to improve the thermal stability of the PRMT5/MEP50-MTA protein complex, resulting in an increase in the protein melting temperature. 2 Experimental instruments: Quantitative PCR instrument (Quantstudio6 Flex) was purchased from Life Technologies; pipettes were purchased from Eppendorf or Rainin. 3 Experimental reagents and consumables: PRMT5/MEP50 protein was prepared by Viva Biotech; HEPES was purchased from Thermo Fisher Scientific (Cat. No. 15630080); DTT was purchased from Sigma (Cat. No. 43816-10ml); sodium chloride was purchased from Invitrogen (Cat. No. AM9760G); Protein Thermal Shift™ Dye Kit was purchased from Thermo Fisher Scientific (Cat. No. 4461146); methylthioadenosine (MTA) was purchased from Sigma (Cat. No. D5011). 4 Experimental method: In this experiment, the thermal shift method was used to measure the change in the melting temperature (Tm) of the PRMT5/MEP50-MTA protein complex before and after compound binding, thereby characterising the ability of the compound to improve the thermal stability of the PRMT5/MEP50-MTA protein complex. A solution containing 50 mM HEPES, 10 mM DTT, 2 µM MTA, SYPRO Orange and 250 mM NaCl was prepared as the experimental buffer. Human PRMT5/MEP50 protein was added to a final concentration of 2 µM, and the mixture was incubated at room temperature for 30 minutes. The above reaction mixture was aliquoted into 8-strip PCR tubes at 19.5 µL per tube. Then 0.5 µL of test compound or DMSO was added to each tube, providing a total reaction volume of 20 µL and a final compound concentration of 8 µM. 2.5% DMSO was set as the vehicle control. After incubation at room temperature for 10 minutes, the PCR tubes were placed in a PCR instrument, and the melt curve function was selected to measure the melting temperature of the PRMT5/MEP50-MTA protein complex in different treatment groups (heated from 25°C to 95°C, 0.03°C/s). 5 Experimental data processing method: The experimental data files from the PCR instrument were imported into the thermal shift software to obtain the melting temperature (Tm) for each treatment group.

The next data set relates to HCT116 wild-type cells. The data set is described as follows: Cell proliferation inhibition (CellTiter-Glo), HCT116 wild-type cells. It is filed as cell-based. The settings on record: Homo sapiens, HCT-116, read-out: HCT116 IC50.
Source text: as §1, §2

Data set [3] can be described thus: Pharmacokinetics in rats (plasma) after oral administration. The settings on record: rat, po, SD rats, p.o. 5 mg/kg; for Cmax: read-out: Cmax; for MRT inf: read-out: MRT0-∞; for Tmax: read-out: tmax. It is filed as in vivo.
Protocol: Test Example 4: Determination of the pharmacokinetics of the compounds of the present invention in rats (plasma) after oral administration.
1 Study objective: SD rats were used as test animals to study the pharmacokinetic behaviour of the following example compounds in rats (plasma) after oral administration at a dose of 5 mg/kg. 2 Test scheme • 2.1 Test drugs: Vehicle formula: 0.5% CMC-Na (1% Tween 80); the examples of the present invention, made in house. • 2.2 Test animals: 3 SD rats per group, male, purchased from Shanghai Bikai Keyi Biotechnology Co., Ltd., with animal license number (SCXK (Shanghai) 2018-0006, No.20180006037467). • 2.3 Administration: 3 SD rats per group, male, were fasted overnight and then respectively administered PO at a dose of 5 mg/kg and a volume of 10 mL/kg. • 2.4 Sample collection: 0.2 mL of blood was collected from the jugular vein of rats before administration and at 0, 0.25, 0.5, 1, 2, 4, 6, 8 and 24 h after administration, and placed in EDTA-K2test tubes, and the test tubes were centrifuged at 6,000 rpm at 4°C for 6 min to separate the plasma, which was stored at -80°C. The animals were fed 4 h after administration. • 2.5 Sample treatment • 1) 160 uL of acetonitrile was added to 40 uL of plasma sample for precipitation, and after mixing, the mixture was centrifuged at 3,500 × g for 5-20 minutes. • 2) 100 uL of the treated supernatant solution was taken for LC/MS/MS analysis to determine the concentration of the test compounds. • 2.6 Liquid phase analysis • Liquid phase conditions: Shimadzu LC-20AD pump;mass spectrometry conditions: AB Sciex API 4000 mass spectrometer • Chromatographic column: Phenomenex Gemiu 5 um C18 50 × 4.6 mm • Mobile phase: solution A: 0.1% formic acid in water, solution B: methanol • Flow rate: 1.0 mL/min, elution time: 0-4.0 min, with eluents as follows:
Experimental results and analysis: The main pharmacokinetic parameters were calculated using WinNonlin 8.2.

Each structure is given as a SMILES string. Where two headings read alike, the source gives them in different places.

In the case of `Nc1nc2cc3c(cc2n2cncc12)C(=O)N(C1COCc2nc(C(F)(F)F)ccc21)CC/C=C\3` (racemic) [Example 311], the Selectivity in data set [1] stood at 77. Also, the figures for the IC50 (in data set [1]; with HCT116 wild-type cells) were 23 nM and 1740 nM, respectively. Moreover, the ΔTm (as a rule, the shift of the melting midpoint relative to a reference) at 8 µM in data set [2] was found to be 11.1 °C.
Turning to `CC(c1ccc(C(F)(F)F)cn1)N1CCC/C=C\c2cc3nc(N)c4cncn4c3cc2C1=O` (racemic) [Example 352, (Z)-4-Amino-12-(1-(5-(trifluoromethyl)pyridin-2-yl)ethyl)-9,10,11,12-tetrahydro-13H-azo[4,3-g]imidazo[1,5-a]quinoxalin-13-one], the ΔTm at 8 µM in data set [2] was determined as 11 °C.
For the compound `CC1OCc2c1c(N)nc1cc3c(cc21)C(=O)N(Cc1ccc(S(F)(F)(F)(F)F)cn1)CCCOC3` (racemic) [Example 437, 4-Amino-3-methyl-12-((5-(pentafluorosulphanyl)pyridin-2-yl)methyl)-3,7,9,10,11,12-hexahydrofuro[3,4-c][1,5]oxazolo[7,8-g]quinolin-13(1H)-one], in data set [1], the Selectivity is reported as 64 and the IC50 (usually the concentration that inhibits the measured activity by half) turned out to be 3 nM. For the same compound, the ΔTm at 8 µM in data set [2] came to 12.2 °C. Also, the IC50 with HCT116 wild-type cells amounted to 191 nM.
Regarding `Nc1nc2cc3c(cc2n2cncc12)C(=O)N(C1COCc2nc(C(F)(F)F)ccc21)CCCC/C=C\3` (single isomer, unassigned) [Example 62-P1], in data set [3] (male), the AUC(0-inf) – broadly, the area under the concentration-time curve extrapolated to infinity – is 800 ng·h/mL; the half-life (as a rule, the time needed for the level to fall by half in the phase considered) is 2.2 h; the Cmax (commonly the highest concentration seen after dosing) worked out at 201 ng/mL; the MRT inf worked out at 3.8 h. In data set [3] (male), the Tmax (usually the time from dosing to the highest level) amounted to 1 h. In addition, in data set [2], the ΔTm at 8 µM was 10.8 °C.
On to `Nc1nc2cc3c(cc2n2cncc12)C(=O)N([C@@H]1COCc2nc(C(F)(F)F)ccc21)CC/C=C\3` (single isomer, unassigned) [Example 311-P1], for which, in data set [3] (in vivo), the area under the curve AUC(0-inf) stood at 1780 ng·h/mL, the half-life was 1.8 h, the Cmax was 330 ng/mL and the MRT inf was 3.7 h. Besides, in data set [3] (in vivo), the Tmax is 2.3 h. The ΔTm at 8 µM in data set [2] is 10.9 °C.
Consider `C[C@@H]1CCN([C@@H]2COCc3nc(C(F)(F)F)ccc32)C(=O)c2cc3c(cc2CO1)nc(N)c1cncn13` [Example 15-P1, (R)-4-amino-9-methyl-12-((S)-2-(trifluoromethyl)-5,8-dihydro-6H-pyrano[3,4-b]pyridin-5-yl)-9,10,11,12-tetrahydroimidazo[1,5-a][1,5]oxazolo[8,7-g]quinoxalin-13(7H)-one and (S)-4-amino-9-methyl-12-((R)-2-(trifluoromethyl)-5,8-dihydro-6H-pyrano[3,4-b]pyridin-5-yl)-9,10,11,12-tetrahydroimidazo[1,5-a][1,5]oxazolo[8,7-g]quinoxalin-13(7H)-one], for which, in data set [2], the thermal shift (ΔTm) at 8 µM turned out to be 10.1 °C.
The same measure, in the same setting: the result for `Nc1nc2cc3c(cc2n2cncc12)C(=O)N(C1COCc2nc(C(F)(F)F)ccc21)CCCCOC3` (stereo not drawn) [Example 48, 4-Amino-13-(2-(trifluoromethyl)-5,8-dihydro-6H-pyrano[3,4-b]pyridin-5-yl)-10,11,12,13-tetrahydro-7H-imidazo [1,5-a] [1,6] oxazino [3,4-g] quinoxalin-14(9H)-one] reads 10.9 °C.
Consider `Nc1nc2cc3c(cc2n2cncc12)C(=O)N(C1COCc2nc(C(F)(F)F)ccc21)CCC/C=C\3` (stereo not drawn) [Example 158, (Z)-4-Amino-12-(2-(trifluoromethyl)-5,8-dihydro-6H-pyrano[3,4-b]pyridin-5-yl)-9,10,11,12-tetrahydro-13H-azonino[4,3-g]imidazo[1,5-a]quinoxalin-13-one], for which, in data set [3] (male), the AUC(0-inf) came to 712 ng·h/mL, the half-life was 1.3 h, the Cmax amounted to 287 ng/mL and the MRT inf came to 2 h. Further, in data set [3] (male), the Tmax is 0.5 h. Further, the thermal shift (ΔTm) at 8 µM in data set [2] came out at 11.3 °C.
With `Nc1nc2cc3c(cc2n2cncc12)C(=O)N(C1COCc2nc(C(F)(F)F)ccc21)CCCCC3` (stereo not drawn) [Example 159, 4-Amino-12-(2-(trifluoromethyl)-5,8-dihydro-6H-pyrano[3,4-b]pyridin-5-yl)-7,8,9,10,11,12-hexahydro-13H-azonino[4,3-g]imidazo[1,5-a]quinoxalin-13-one], the ΔTm at 8 µM in data set [2] was 10.5 °C.
Still for that read-out and setting: the figure for `Nc1nc2cc3c(cc2n2cncc12)C(=O)N(C1COCc2cc(C(F)(F)F)ccc21)CCC/C=C\3` (stereo not drawn) [Example 167, (Z)-4-Amino-12-(7-trifluoromethylisochroman-4-yl)-9,10,11,12-tetrahydro-13H-azonino[4,3-g]imidazo[1,5-a]quinoxalin-13-one] is 12.3 °C; for `Nc1nc2cc3c(cc2n2cncc12)C(=O)N(Cc1ccc(C(F)(F)F)nn1)CCC/C=C\3` [Example 391, (Z)-4-Amino-12-(6-(trifluoromethyl)pyridazin-3-yl)methyl-9,10,11,12-tetrahydro-13H-azonino[4,3-g]imidazo[1,5-a]quinoxalin-13-one] it is 10.9 °C.
Regarding `CC(c1ccc(C(F)(F)F)nc1)N1CCC/C=C\c2cc3nc(N)c4cncn4c3cc2C1=O` (stereo not drawn) [Example 415, (Z)-4-Amino-12-(1-(6-(trifluoromethyl)pyridin-3-yl)ethyl)-9,10,11,12-tetrahydro-13H-azo[4,3-g]imidazo[1,5-a]quinoxalin-13-one], the ΔTm at 8 µM in data set [2] was found to be 10.3 °C.
On the same count and under the same terms, the figure for `CN1CCCN(Cc2ccc(C(F)(F)F)cn2)C(=O)c2cc3c(cc2C1)nc(N)c1cnn(C)c13` [Example 502, 4-Amino-1,8-dimethyl-12-((5-(trifluoromethyl)pyridin-2-yl)methyl)-7,8,9,10,11,12-hexahydro-[1,5]diazonino[7,8-g]pyrazolo[4,3-c]quinolin-13(1H)-one] is 10.6 °C.
Still for that read-out and setting: the figure for `C[C@@H]1CCCN(Cc2ccc(C(F)(F)F)cn2)C(=O)c2cc3c(cc2C1)nc(N)c1cncn13` [Example 514-P1, (R)-4-amino-8-methyl-12-((5-(trifluoromethyl)pyridin-2-yl)methyl)-7,8,9,10,11,12-hexahydro-13H-azo[4,3-g]imidazo[1,5-a]quinoxalin-13-one] is 11.3 °C.
On the same count and under the same terms, the result for `Cc1nc(CN2CC/C=C\c3cc4nc(N)c5cncn5c4cc3C2=O)ccc1C(F)(F)F` [Example 688, (Z)-4-Amino-11-((6-methyl-5-(trifluoromethyl)pyridin-2-yl)methyl)-10,11-dihydroazo[4,3-g]imidazo[1,5-a]quinoxalin-12(9H)-one] reads 11.6 °C.
